ChEMBL document CHEMBL5365460, “Structural Mechanism and Inhibitors Targeting EGFR Exon 20 Insertion (Ex20ins) Mutations” (J Med Chem, 2023)

How the values were obtained:
[1] = Antiproliferative activity against mouse Ba/F3 EGFR-D770-N771ins_SVD cells; type: functional, cell-based
[2] = Antiproliferative activity against mouse Ba/F3 EGFR-V769_D770insASV cells; type: functional, cell-based
[3] = Antiproliferative activity against mouse Ba/F3 EGFR-H773-V774ins_NPH cells; type: functional, cell-based
[4] = Antiproliferative activity against mouse Ba/F3 EGFR-A763_Y764insFQEA cells; type: functional, cell-based
[5] = Antiproliferative activity against mouse Ba/F3 EGFR-A763_Y764insFQEA cells incubated for 72 hrs by CCK-8 assay; type: functional, cell-based
[6] = Antiproliferative activity against mouse Ba/F3 EGFR-V769_D770insASV cells incubated for 72 hrs by CCK-8 assay; type: functional, cell-based
[7] = Antiproliferative activity against mouse Ba/F3 EGFR-D770-N771ins_SVD cells incubated for 72 hrs by CCK-8 assay; type: functional, cell-based
[8] = Antiproliferative activity against mouse Ba/F3 EGFR-H773-V774ins_NPH cells incubated for 72 hrs by CCK-8 assay; type: functional, cell-based
[9] = Antiproliferative activity against human CUTO14 cells harboring EGFR V769_D770insASV mutant incubated for 72 hrs by MTS assay; type: functional, cell-based; conditions: CUTO14, 72 h
[10] = Selectivity index, ratio of IC50 for antiproliferative activity against mouse BaF3 cells harboring wild type EGFR to IC50 for antiproliferative activity against mouse Ba/F3 EGFR-V769_D770insASV cells; type: functional
BaF3 [11] = assay: Antiproliferative activity against mouse BaF3 cells harboring wild type EGFR incubated for 48 hrs by Cell Titer-Glo assay; type: functional, cell-based; conditions: BaF3, 48 h
[12] = Antiproliferative activity against mouse Ba/F3 EGFR-V769_D770insASV cells incubated for 48 hrs by Cell Titer-Glo assay; type: functional, cell-based
[13] = Antiproliferative activity against mouse Ba/F3 EGFR-D770-N771ins_SVD cells incubated for 48 hrs by Cell Titer-Glo assay; type: functional, cell-based
BaF3 [14] = assay: Antiproliferative activity against mouse BaF3 cells harboring EGFR-D770-N771insNPG mutant incubated for 48 hrs by Cell Titer-Glo assay; type: functional, cell-based; conditions: BaF3, 48 h
BaF3 [15] = assay: Antiproliferative activity against mouse BaF3 cells harboring wild type EGFR incubated for 3 days by Cell Titer-Glo assay; type: functional, cell-based; conditions: BaF3, 72 h
[16] = Antiproliferative activity against mouse Ba/F3 EGFR-A763_Y764insFQEA cells incubated for 3 days by Cell Titer-Glo assay; type: functional, cell-based; conditions: 72 h
[17] = Antiproliferative activity against mouse Ba/F3 EGFR-V769_D770insASV cells incubated for 3 days by Cell Titer-Glo assay; type: functional, cell-based; conditions: 72 h
[18] = Antiproliferative activity against mouse Ba/F3 EGFR-D770-N771ins_SVD cells incubated for 3 days by Cell Titer-Glo assay; type: functional, cell-based; conditions: 72 h
BaF3 [19] = assay: Antiproliferative activity against mouse BaF3 cells harboring EGFR-D770-N771insNPG mutant incubated for 3 days by Cell Titer-Glo assay; type: functional, cell-based; conditions: BaF3, 72 h
[20] = Antiproliferative activity against mouse Ba/F3 EGFR-H773-V774ins_NPH cells incubated for 3 days by Cell Titer-Glo assay; type: functional, cell-based; conditions: 72 h
[21] = Selectivity index, ratio of IC50 for antiproliferative activity against mouse BaF3 cells harboring wild type EGFR to IC50 for antiproliferative activity against mouse Ba/F3 EGFR-A763_Y764insFQEA cells; type: functional
[22] = Selectivity index, ratio of IC50 for antiproliferative activity against mouse BaF3 cells harboring wild type EGFR to IC50 for antiproliferative activity against mouse Ba/F3 EGFR-D770-N771ins_SVD cells; type: functional
[23] = Selectivity index, ratio of IC50 for antiproliferative activity against mouse BaF3 cells harboring wild type EGFR to IC50 for antiproliferative activity against mouse BaF3 cells harboring EGFR-D770-N771insNPG mutant; type: functional
[24] = Selectivity index, ratio of IC50 for antiproliferative activity against mouse BaF3 cells harboring wild type EGFR to IC50 for antiproliferative activity against mouse Ba/F3 EGFR-H773-V774ins_NPH cells; type: functional
NIH3T3 [25] = assay: Antiproliferative activity against mouse NIH/3T3 cells harboring wild type EGFR incubated for 72 hrs by Cell Titer-Glo assay; type: functional, cell-based; conditions: NIH3T3, 72 h
NIH3T3 [26] = assay: Antiproliferative activity against mouse NIH/3T3 cells harboring EGFR-A763_Y764insFQEA incubated for 72 hrs by Cell Titer-Glo assay; type: functional, cell-based; conditions: NIH3T3, 72 h
NIH3T3 [27] = assay: Antiproliferative activity against mouse NIH/3T3 cells harboring EGFR-V769_D770insASV incubated for 72 hrs by Cell Titer-Glo assay; type: functional, cell-based; conditions: NIH3T3, 72 h
NIH3T3 [28] = assay: Antiproliferative activity against mouse NIH/3T3 cells harboring EGFR-D770-N771ins_SVD incubated for 72 hrs by Cell Titer-Glo assay; type: functional, cell-based; conditions: NIH3T3, 72 h
NIH3T3 [29] = assay: Antiproliferative activity against mouse NIH/3T3 cells harboring EGFR-H773-V774ins_NPH incubated for 72 hrs by Cell Titer-Glo assay; type: functional, cell-based; conditions: NIH3T3, 72 h
BaF3 [30] = assay: Antiproliferative activity against mouse Ba/F3 cells harboring EGFR-D770-N771ins_G mutant incubated for 3 days by Cell Titer-Glo assay; type: functional, cell-based; conditions: BaF3, 72 h
BaF3 [31] = assay: Antiproliferative activity against mouse Ba/F3 cells harboring EGFR-H773-V774ins_PH mutant incubated for 3 days by Cell Titer-Glo assay; type: functional, cell-based; conditions: BaF3, 72 h
[32] = molecular target: Epidermal growth factor receptor (Homo sapiens, UniProt P00533); assay: Inhibition of wildtype EGFR (unknown origin) phosphorylation
[33] = molecular target: Epidermal growth factor receptor (Homo sapiens, UniProt P00533, D770-N771INSNPG); assay: Inhibition of EGFR-D770-N771insNPG mutant (unknown origin) phosphorylation
[34] = Metabolic stability in human hepatocytes assessed as intrinsic clearance measured per 10^6 cells at 100 uM measured upto 100 mins by LC-MS/MS analysis; type: ADME, cell-based, Hepatocyte; conditions: read-out: CLH
BaF3 [35] = assay: Antiproliferative activity against mouse BaF3 cells harboring wild type EGFR; type: functional, cell-based
BaF3 [36] = assay: Antiproliferative activity against mouse BaF3 cells harboring EGFR exon 20 insertion mutant incubated for 72 hrs by Cell Titer-Glo assay; type: functional, cell-based; conditions: BaF3, 72 h
BaF3 [37] = assay: Potency index, ratio of afatinib IC50 to test compound IC50 for antiproliferative activity against mouse BaF3 cells harboring EGFR exon 20 insertion mutant incubated for 72 hrs by Cell Titer-Glo assay; type: functional
[38] = Antiproliferative activity against human CUTO14 cells harboring EGFR V769_D770insASV mutant incubated for 72 hrs by Cell Titer-Glo assay; type: functional, cell-based; conditions: CUTO14, 72 h
[39] = Antiproliferative activity against human YUL-0019 cells harboring EGFR N771delinsFH mutant incubated for 72 hrs by Cell Titer-Glo assay; type: functional, cell-based; conditions: YUL-0019, 72 h

Epidermal growth factor receptor (Homo sapiens, UniProt P00533, D770-N771INSNPG), sequence (P00533 whole entry, looked up, stated change not applied): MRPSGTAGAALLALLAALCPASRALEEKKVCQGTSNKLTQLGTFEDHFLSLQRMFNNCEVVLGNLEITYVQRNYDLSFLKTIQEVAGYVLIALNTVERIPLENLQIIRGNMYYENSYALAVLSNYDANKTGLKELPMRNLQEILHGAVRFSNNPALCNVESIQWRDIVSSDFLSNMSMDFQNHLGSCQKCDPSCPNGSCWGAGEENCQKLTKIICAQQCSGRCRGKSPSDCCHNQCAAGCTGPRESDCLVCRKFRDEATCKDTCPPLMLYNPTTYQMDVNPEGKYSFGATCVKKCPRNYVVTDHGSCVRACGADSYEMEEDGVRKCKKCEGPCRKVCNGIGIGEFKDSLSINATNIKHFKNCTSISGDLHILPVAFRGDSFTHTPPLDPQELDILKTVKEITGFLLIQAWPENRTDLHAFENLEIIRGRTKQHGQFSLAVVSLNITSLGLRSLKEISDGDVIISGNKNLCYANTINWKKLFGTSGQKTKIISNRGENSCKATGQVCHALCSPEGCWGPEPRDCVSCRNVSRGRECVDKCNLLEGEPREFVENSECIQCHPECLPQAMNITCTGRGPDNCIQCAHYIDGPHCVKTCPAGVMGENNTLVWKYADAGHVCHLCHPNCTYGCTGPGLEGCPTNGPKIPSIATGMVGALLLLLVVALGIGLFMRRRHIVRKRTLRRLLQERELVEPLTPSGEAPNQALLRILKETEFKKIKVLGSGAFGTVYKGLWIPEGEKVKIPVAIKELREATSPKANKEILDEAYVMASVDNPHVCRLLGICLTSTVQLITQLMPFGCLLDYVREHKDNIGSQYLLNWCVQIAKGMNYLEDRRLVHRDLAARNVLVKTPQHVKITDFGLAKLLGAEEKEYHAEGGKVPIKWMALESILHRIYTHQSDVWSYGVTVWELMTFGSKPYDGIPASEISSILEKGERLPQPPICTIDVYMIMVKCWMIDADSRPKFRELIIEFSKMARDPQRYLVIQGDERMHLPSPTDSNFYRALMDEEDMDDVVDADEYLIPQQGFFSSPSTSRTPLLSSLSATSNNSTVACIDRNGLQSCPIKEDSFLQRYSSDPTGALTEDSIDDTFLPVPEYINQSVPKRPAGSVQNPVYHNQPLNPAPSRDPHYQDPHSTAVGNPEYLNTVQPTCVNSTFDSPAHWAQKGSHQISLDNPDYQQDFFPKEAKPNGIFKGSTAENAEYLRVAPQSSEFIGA
Epidermal growth factor receptor (Homo sapiens, UniProt P00533), sequence (P00533 whole entry): as the sequence (P00533 whole entry, looked up, stated change not applied) above

SMILES: COc1c(Cl)cccc1Nc1c(-c2ccncc2C#C[C@@]2(C)CCCN2C(=O)/C=C/CN(C)C)[nH]c2c1C(=O)NCC2
- IC50 [1]: 6.22 nM
- IC50 [2]: 5.62 nM
- IC50 [3]: 16.7 nM
- IC50 [4]: 7.7 nM

SMILES: CN(C)C/C=C/C(=O)Nc1cc2c(Nc3ccc(Cl)c(Br)c3)ncnc2cn1 [TH-4000E]
- IC50 [5]: < 0.5 nM
- IC50 [6]: 7.6 nM
- IC50 [7]: 7.3 nM
- IC50 [8]: 9.9 nM
- IC50 [9]: 72 nM

SMILES: COc1c(F)cccc1Nc1c(-c2ccncc2OCC(C)(C)OC)[nH]c2c1C(=O)NCC2
- Ratio IC50 [10]: 25.9
- IC50 (BaF3 [11]): 397 nM
- IC50 [12]: 15.3 nM
- IC50 [13]: 11.9 nM
- IC50 (BaF3 [14]): 12.8 nM

SMILES: C=CC(=O)Nc1cc(Nc2ncc(C(=O)OC(C)C)c(-c3cn(C)c4ccccc34)n2)c(OC)cc1N(C)CCN(C)C [MOBOCERTINIB]
- IC50 (BaF3 [15]): 34.5 nM
- IC50 [16]: 11.8 nM
- IC50 [17]: 10.9 nM
- IC50 [18]: 22.5 nM
- IC50 (BaF3 [19]): 4.3 nM
- IC50 [20]: 18.1 nM
- Ratio IC50 [10]: 3.17
- Ratio IC50 [21]: 1.5
- Ratio IC50 [22]: 1.5
- Ratio IC50 [23]: 1.5
- Ratio IC50 [24]: 1.5

SMILES: C#Cc1cccc(Nc2ncnc3cc(OCCOC)c(OCCOC)cc23)c1 [ERLOTINIB]
- IC50 (BaF3 [15]): 71 nM
- IC50 [16]: 214 nM
- IC50 [17]: 1340 nM
- IC50 [18]: 3480 nM
- IC50 (BaF3 [19]): 2320 nM
- IC50 [20]: 2700 nM
- Ratio IC50 [10]: 0.05

SMILES: C=CC(=O)N[C@H]1C=C(C)c2c(-c3cnc4ccccc4c3)c3c(N)ncnc3n2C1 [CLN-081]
- IC50 (BaF3 [15]): 676 nM
- IC50 [16]: 5 nM
- IC50 [17]: 5 nM
- IC50 [18]: 5 nM
- IC50 [20]: 5 nM
- IC50 (NIH3T3 [25]): 368 nM
- IC50 (NIH3T3 [26]): < 4.48 nM
- IC50 (NIH3T3 [27]): 78.2 nM
- IC50 (NIH3T3 [28]): 23.4 nM
- IC50 (NIH3T3 [29]): 66.7 nM
- IC50 (BaF3 [30]): 5 nM
- IC50 (BaF3 [31]): 5 nM
- IC50 [32]: 8 nM
- IC50 [33]: 7.4 nM

SMILES: C=CC(=O)Nc1cc(Nc2nccc(Nc3cc(Cl)c(F)cc3C(C)(C)O)n2)c(OC)cc1N1CC[C@@H](N(C)C)C1 [SUNVOZERTINIB]
- IC50 (BaF3 [15]): 12.7 nM
- IC50 [17]: 22.1 nM
- IC50 [20]: 29.6 nM
- Ratio IC50 [10]: 0.57
- hepatocyte CLint at 100 µM [34]: 2.77 µL/min/1e6 cells

SMILES: C=CC(=O)Nc1cccc(N(C(=O)OCc2ccc(F)cc2)c2ccnc(Nc3cnn(C)c3)n2)c1
- IC50 (BaF3 [35]): 7.6 nM
- IC50 [1]: 15 nM
- Ratio IC50 [10]: 0.22
- IC50 [2]: 34 nM

SMILES: CN(C)C/C=C/C(=O)Nc1cc2c(Nc3ccc(F)c(Cl)c3)ncnc2cc1O[C@H]1CCOC1 [AFATINIB]
- IC50 (BaF3 [15]): 3.8 nM
- IC50 [16]: 2.7 nM
- IC50 [17]: 46 nM
- IC50 [18]: 163 nM
- IC50 (BaF3 [19]): 40 nM
- IC50 [20]: 102 nM
- Ratio IC50 [10]: 0.08

SMILES: C=CC(=O)N1CCC(Oc2cc3c(Nc4ccc(Cl)c(Cl)c4F)ncnc3cc2OC)CC1 [POZIOTINIB]
- IC50 [5]: 0.7 nM
- IC50 [6]: 4.8 nM
- IC50 [7]: 2.7 nM
- IC50 [8]: 2.2 nM
- IC50 (BaF3 [36]): 1 nM
- Ratio IC50 (BaF3 [37]): ~40
- IC50 [38]: 1.8 nM
- IC50 [39]: 0.3 nM

SMILES: C=CC(=O)Nc1cc(Nc2nccc(-c3cn(C)c4ccccc34)n2)c(OC)cc1N(C)CCN(C)C [OSIMERTINIB]
- IC50 (BaF3 [15]): 350 nM
- IC50 [16]: 87 nM
- IC50 [17]: 173 nM
- IC50 [18]: 576 nM
- IC50 (BaF3 [19]): 57 nM
- IC50 [20]: 469 nM
- Ratio IC50 [10]: 2.02

SMILES: C=CC(=O)Nc1cc2c(Nc3ccc(OCc4ccccn4)c(Cl)c3)ncnc2cc1OCCN1CCOCC1 [TUXOBERTINIB]
- IC50 (BaF3 [35]): ~1000 nM
- IC50 [1]: < 100 nM
